Reference: patent US11542240B2, “STK19 inhibitors for treatment of cancer” (TRUSTEES OF BOSTON UNIVERSITY, priority 2018, dated 2023)
Like-named read-outs stand apart in the source and are kept apart here.

What was measured:
Experiment in all cases: biochemical
Type in all cases: binding
[1] = biological target: panel of 468 diverse kinases (Homo sapiens, UniProt O75582); conditions: 1000 nM, read-out: Percent Control
[2] = biological target: panel of 468 diverse kinases (Homo sapiens, UniProt P00533, DEL746-750); conditions: EGFR(E746-A750del); 1000 nM; read-out: Percent Control
[3] = biological target: panel of 468 diverse kinases (Homo sapiens, UniProt P09769); conditions: FGR; 1000 nM; read-out: Percent Control
Sequence of panel of 468 diverse kinases (Homo sapiens, UniProt P09769) (P09769 2-529 limits assumed): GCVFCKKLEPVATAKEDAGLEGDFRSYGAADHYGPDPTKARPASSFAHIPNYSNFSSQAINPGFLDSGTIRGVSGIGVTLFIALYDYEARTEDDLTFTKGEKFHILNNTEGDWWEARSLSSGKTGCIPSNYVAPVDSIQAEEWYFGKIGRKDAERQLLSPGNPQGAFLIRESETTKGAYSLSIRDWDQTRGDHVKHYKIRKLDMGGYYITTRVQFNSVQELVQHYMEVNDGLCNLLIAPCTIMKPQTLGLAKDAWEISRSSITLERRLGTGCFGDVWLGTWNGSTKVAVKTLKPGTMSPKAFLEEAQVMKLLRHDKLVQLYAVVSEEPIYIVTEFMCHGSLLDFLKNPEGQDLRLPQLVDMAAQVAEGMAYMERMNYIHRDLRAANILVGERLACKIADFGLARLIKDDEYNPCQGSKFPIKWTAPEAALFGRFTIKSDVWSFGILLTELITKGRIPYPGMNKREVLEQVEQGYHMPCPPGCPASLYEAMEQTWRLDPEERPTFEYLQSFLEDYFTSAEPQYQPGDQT

[4] = biological target: panel of 468 diverse kinases (Homo sapiens, UniProt P10721, V559D/V654A); conditions: KIT(V559D,V654A); 1000 nM; read-out: Percent Control
[5] = biological target: panel of 468 diverse kinases (Homo sapiens, UniProt P11362); conditions: FGFR1; 1000 nM; read-out: Percent Control
[6] = biological target: panel of 468 diverse kinases (Homo sapiens, UniProt P29323); conditions: EPHB2; 1000 nM; read-out: Percent Control
[7] = biological target: panel of 468 diverse kinases (Homo sapiens, UniProt P36888, N841I); conditions: FLT3(N841I); 1000 nM; read-out: Percent Control
[8] = biological target: panel of 468 diverse kinases (Homo sapiens, UniProt P36897); conditions: TGFBR1; 1000 nM; read-out: Percent Control
[9] = biological target: panel of 468 diverse kinases (Homo sapiens, UniProt P37023); conditions: ACVRL1; 1000 nM; read-out: Percent Control
Sequence of panel of 468 diverse kinases (Homo sapiens, UniProt P37023) (P37023 22-503 limits assumed): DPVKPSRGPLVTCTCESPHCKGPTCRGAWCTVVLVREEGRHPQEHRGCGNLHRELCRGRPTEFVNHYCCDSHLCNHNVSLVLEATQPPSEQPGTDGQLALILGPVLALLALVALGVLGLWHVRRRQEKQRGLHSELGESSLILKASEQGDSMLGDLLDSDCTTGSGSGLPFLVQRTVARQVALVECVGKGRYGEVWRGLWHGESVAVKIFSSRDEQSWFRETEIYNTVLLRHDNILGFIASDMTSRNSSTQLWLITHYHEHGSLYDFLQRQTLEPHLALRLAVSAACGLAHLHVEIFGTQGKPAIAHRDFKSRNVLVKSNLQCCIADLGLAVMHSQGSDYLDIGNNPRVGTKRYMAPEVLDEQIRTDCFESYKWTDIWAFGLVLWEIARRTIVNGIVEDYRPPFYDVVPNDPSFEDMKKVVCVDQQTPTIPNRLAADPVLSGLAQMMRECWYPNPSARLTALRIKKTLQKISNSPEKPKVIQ

[10] = biological target: panel of 468 diverse kinases (Homo sapiens, UniProt P41240); conditions: CSK; 1000 nM; read-out: Percent Control
Sequence of panel of 468 diverse kinases (Homo sapiens, UniProt P41240) (P41240 2-450 limits assumed): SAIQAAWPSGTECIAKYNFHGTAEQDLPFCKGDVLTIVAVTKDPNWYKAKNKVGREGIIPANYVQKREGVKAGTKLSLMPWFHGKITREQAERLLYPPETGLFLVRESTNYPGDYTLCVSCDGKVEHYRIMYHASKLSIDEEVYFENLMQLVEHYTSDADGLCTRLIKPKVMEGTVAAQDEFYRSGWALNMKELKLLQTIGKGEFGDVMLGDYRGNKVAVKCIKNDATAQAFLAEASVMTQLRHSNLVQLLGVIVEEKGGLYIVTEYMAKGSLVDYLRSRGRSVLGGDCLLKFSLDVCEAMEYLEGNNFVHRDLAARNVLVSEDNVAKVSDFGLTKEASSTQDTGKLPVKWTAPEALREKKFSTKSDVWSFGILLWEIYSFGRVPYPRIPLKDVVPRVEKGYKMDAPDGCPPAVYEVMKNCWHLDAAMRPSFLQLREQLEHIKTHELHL

[11] = biological target: panel of 468 diverse kinases (Homo sapiens, UniProt P50613); conditions: CDK7; 1000 nM; read-out: Percent Control
Sequence of panel of 468 diverse kinases (Homo sapiens, UniProt P50613) (P50613 2-346 limits assumed): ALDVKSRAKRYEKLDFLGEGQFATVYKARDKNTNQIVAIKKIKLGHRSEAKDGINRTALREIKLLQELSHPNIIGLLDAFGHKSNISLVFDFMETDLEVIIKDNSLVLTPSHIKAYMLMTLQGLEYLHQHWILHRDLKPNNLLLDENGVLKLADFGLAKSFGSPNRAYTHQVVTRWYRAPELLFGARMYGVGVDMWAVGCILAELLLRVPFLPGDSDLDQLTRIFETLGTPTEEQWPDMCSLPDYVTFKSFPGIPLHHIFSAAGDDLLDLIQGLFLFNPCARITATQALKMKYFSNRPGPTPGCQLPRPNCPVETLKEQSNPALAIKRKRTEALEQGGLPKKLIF

[12] = biological target: panel of 468 diverse kinases (Homo sapiens, UniProt P51956); conditions: NEK3; 1000 nM; read-out: Percent Control
[13] = biological target: panel of 468 diverse kinases (Homo sapiens, UniProt P53671); conditions: LIMK2; 1000 nM; read-out: Percent Control
[14] = biological target: panel of 468 diverse kinases (Homo sapiens, UniProt Q05655); conditions: PRKCD; 1000 nM; read-out: Percent Control
[15] = biological target: panel of 468 diverse kinases (Homo sapiens, UniProt Q06418); conditions: TYRO3; 1000 nM; read-out: Percent Control
[16] = biological target: panel of 468 diverse kinases (Homo sapiens, UniProt Q13464); conditions: ROCK1; 1000 nM; read-out: Percent Control
Sequence of panel of 468 diverse kinases (Homo sapiens, UniProt Q13464) (Q13464 2-1354 limits assumed): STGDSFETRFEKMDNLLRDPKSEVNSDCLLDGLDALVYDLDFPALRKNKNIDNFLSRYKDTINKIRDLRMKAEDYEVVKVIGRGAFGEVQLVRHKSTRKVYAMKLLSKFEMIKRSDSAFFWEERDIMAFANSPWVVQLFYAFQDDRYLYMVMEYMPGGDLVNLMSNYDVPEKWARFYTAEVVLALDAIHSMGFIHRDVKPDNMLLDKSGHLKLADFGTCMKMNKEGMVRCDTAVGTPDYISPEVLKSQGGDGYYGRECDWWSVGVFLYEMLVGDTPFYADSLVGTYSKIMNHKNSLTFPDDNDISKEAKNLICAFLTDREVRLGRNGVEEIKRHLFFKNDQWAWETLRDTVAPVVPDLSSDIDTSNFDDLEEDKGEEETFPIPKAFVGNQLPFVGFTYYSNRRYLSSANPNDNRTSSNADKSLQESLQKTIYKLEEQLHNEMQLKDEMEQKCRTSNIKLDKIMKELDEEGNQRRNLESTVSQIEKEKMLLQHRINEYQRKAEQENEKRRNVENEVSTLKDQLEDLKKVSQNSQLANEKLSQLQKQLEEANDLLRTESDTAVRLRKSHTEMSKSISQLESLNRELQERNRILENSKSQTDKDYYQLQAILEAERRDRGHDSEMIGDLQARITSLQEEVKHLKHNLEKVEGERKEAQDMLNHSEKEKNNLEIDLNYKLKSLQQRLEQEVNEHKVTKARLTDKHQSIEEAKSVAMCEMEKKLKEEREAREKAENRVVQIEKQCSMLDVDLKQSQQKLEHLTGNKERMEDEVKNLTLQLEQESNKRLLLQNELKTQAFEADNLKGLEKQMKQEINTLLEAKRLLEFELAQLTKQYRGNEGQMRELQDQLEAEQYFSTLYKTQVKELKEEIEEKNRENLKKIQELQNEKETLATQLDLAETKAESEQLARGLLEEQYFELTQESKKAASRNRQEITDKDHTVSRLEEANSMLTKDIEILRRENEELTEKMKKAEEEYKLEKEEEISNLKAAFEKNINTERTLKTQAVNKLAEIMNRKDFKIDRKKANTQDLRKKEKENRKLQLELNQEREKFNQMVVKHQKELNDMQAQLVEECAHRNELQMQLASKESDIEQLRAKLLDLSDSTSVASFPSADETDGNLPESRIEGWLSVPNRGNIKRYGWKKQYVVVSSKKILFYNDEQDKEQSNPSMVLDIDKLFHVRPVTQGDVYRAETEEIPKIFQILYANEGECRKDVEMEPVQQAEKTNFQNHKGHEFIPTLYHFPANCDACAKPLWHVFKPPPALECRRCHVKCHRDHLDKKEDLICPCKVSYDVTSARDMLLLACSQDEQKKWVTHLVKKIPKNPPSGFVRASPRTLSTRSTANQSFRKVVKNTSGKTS

[17] = biological target: panel of 468 diverse kinases (Homo sapiens, UniProt Q13705); conditions: ACVR2B; 1000 nM; read-out: Percent Control
Sequence of panel of 468 diverse kinases (Homo sapiens, UniProt Q13705) (Q13705 19-512 limits assumed): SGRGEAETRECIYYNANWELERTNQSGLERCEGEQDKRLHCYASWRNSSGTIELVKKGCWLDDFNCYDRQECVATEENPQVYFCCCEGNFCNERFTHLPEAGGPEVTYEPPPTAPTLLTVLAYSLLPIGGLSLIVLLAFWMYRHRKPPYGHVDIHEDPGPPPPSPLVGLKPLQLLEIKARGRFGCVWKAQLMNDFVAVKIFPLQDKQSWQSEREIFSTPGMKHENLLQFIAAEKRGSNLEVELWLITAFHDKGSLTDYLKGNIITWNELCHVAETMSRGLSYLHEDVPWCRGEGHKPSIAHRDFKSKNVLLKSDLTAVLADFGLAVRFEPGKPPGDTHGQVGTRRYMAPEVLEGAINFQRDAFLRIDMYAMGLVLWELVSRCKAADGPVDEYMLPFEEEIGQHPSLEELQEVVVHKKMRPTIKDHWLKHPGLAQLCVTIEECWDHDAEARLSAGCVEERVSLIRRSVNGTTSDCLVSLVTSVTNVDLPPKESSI

[18] = biological target: panel of 468 diverse kinases (Homo sapiens, UniProt Q14289); conditions: PYK2; 1000 nM; read-out: Percent Control
[19] = biological target: panel of 468 diverse kinases (Homo sapiens, UniProt Q15835); conditions: GRK1; 1000 nM; read-out: Percent Control
[20] = biological target: panel of 468 diverse kinases (Homo sapiens, UniProt Q32MK0); conditions: MLCK; 1000 nM; read-out: Percent Control
[21] = biological target: panel of 468 diverse kinases (Homo sapiens, UniProt Q52WX2); conditions: SBK1; 1000 nM; read-out: Percent Control
[22] = biological target: panel of 468 diverse kinases (Homo sapiens, UniProt Q8N4C8); conditions: MINK; 1000 nM; read-out: Percent Control
[23] = biological target: panel of 468 diverse kinases (Homo sapiens, UniProt Q8NEB9); conditions: VPS34; 1000 nM; read-out: Percent Control
[24] = biological target: panel of 468 diverse kinases (Homo sapiens, UniProt Q8TD19); conditions: NEK9; 1000 nM; read-out: Percent Control
Sequence of panel of 468 diverse kinases (Homo sapiens, UniProt Q8TD19) (Q8TD19 2-979 limits assumed): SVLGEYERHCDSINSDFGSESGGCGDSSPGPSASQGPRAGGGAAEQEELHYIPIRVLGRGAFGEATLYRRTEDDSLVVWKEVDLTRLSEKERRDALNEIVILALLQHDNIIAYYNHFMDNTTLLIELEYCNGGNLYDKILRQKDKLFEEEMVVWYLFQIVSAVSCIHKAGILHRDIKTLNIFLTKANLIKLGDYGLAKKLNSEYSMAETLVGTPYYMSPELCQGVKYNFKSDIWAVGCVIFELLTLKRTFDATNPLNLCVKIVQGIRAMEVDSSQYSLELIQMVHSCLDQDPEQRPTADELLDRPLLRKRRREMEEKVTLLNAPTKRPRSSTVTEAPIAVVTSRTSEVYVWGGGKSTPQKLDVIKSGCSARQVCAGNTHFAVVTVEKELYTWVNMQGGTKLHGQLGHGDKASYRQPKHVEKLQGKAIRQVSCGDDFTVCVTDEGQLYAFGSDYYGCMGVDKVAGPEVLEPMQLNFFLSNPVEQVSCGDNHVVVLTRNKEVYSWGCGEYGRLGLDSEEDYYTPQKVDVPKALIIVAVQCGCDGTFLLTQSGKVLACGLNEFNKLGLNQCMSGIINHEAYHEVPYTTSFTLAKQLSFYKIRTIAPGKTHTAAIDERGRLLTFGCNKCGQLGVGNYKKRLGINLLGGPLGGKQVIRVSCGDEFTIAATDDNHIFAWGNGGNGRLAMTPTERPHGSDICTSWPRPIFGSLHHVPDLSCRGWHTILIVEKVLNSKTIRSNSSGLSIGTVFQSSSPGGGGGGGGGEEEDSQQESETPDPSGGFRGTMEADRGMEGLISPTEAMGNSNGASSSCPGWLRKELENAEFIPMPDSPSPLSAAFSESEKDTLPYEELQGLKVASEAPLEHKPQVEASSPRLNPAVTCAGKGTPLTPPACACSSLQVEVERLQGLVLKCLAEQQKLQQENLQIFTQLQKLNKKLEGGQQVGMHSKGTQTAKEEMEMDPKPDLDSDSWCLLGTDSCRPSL

[25] = biological target: panel of 468 diverse kinases (Homo sapiens, UniProt Q8WU08); conditions: YANK1; 1000 nM; read-out: Percent Control
Sequence of panel of 468 diverse kinases (Homo sapiens, UniProt Q8WU08) (Q8WU08 2-396 limits assumed): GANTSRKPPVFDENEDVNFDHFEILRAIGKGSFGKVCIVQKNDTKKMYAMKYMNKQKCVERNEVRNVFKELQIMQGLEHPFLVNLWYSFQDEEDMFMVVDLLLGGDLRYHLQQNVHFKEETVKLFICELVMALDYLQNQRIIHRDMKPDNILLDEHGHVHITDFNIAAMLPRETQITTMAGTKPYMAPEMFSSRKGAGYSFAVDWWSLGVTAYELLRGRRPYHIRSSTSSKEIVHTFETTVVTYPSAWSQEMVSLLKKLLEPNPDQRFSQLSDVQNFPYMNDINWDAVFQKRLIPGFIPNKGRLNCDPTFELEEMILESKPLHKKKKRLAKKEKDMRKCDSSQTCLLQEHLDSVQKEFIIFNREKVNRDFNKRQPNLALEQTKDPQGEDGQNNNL

[26] = biological target: panel of 468 diverse kinases (Homo sapiens, UniProt Q96PN8); conditions: TS SK3; 1000 nM; read-out: Percent Control
[27] = biological target: panel of 468 diverse kinases (Homo sapiens, UniProt Q96Q40); conditions: PFTAIRE2; 1000 nM; read-out: Percent Control
[28] = biological target: panel of 468 diverse kinases (Homo sapiens, UniProt Q99755); conditions: PIP5KIV; 1000 nM; read-out: Percent Control
[29] = biological target: panel of 468 diverse kinases (Homo sapiens, UniProt Q9BZL6); conditions: PRKD2; 1000 nM; read-out: Percent Control
[30] = biological target: panel of 468 diverse kinases (Homo sapiens, UniProt Q9NYY3); conditions: PLK2; 1000 nM; read-out: Percent Control
[31] = biological target: panel of 468 diverse kinases (Homo sapiens, UniProt Q9UEW8); conditions: STK39; 1000 nM; read-out: Percent Control

COc1cc2nc(NC3CC3)nc(NC3CCN(C(C)C)CC3)c2cc1OC [Formula IV]
remaining activity at 1 µM ([1]; RPS6KA5(Kin.Dom.1-N-terminal)): 75%
remaining activity at 1 µM ([1]; RPS6KA5(Kin.Dom.2-C-terminal)): 100%
remaining activity at 1 µM [2]: 63%
remaining activity at 1 µM [3]: 100%
remaining activity at 1 µM [4]: 76%
remaining activity at 1 µM [5]: 100%
remaining activity at 1 µM [6]: 70%
remaining activity at 1 µM [7]: 63%
remaining activity at 1 µM [8]: 82%
remaining activity at 1 µM [9]: 99%
remaining activity at 1 µM [10]: 98%
remaining activity at 1 µM [11]: 69%
remaining activity at 1 µM [12]: 50%
remaining activity at 1 µM [13]: 96%
remaining activity at 1 µM [14]: 97%
remaining activity at 1 µM [15]: 100%
remaining activity at 1 µM [16]: 45%
remaining activity at 1 µM [17]: 76%
remaining activity at 1 µM [18]: 93%
remaining activity at 1 µM [19]: 67%
remaining activity at 1 µM [20]: 91%
remaining activity at 1 µM [21]: 64%
remaining activity at 1 µM [22]: 69%
remaining activity at 1 µM [23]: 51%
remaining activity at 1 µM [24]: 83%
remaining activity at 1 µM [25]: 95%
remaining activity at 1 µM [26]: 96%
remaining activity at 1 µM [27]: 90%
remaining activity at 1 µM [28]: 96%
remaining activity at 1 µM [29]: 64%
remaining activity at 1 µM [30]: 55%
remaining activity at 1 µM [31]: 58%
